The values below are quoted from earlier work in patent publication US20260335339A1, “COMPOSITIONS FOR DERMAL/TRANSDERMAL DELIVERY AND COSMETIC USE” (YISSUM RESEARCH DEVELOPMENT COMPANY OF THE HEBREW …, priority 2022, published 2026).

Molecules are shown by their SMILES.

For this data set the following is noted: lipophilic fluorescent molecule.

As for `O=C1OC2(c3ccc(O)cc3Oc3cc(O)ccc32)c2ccc(N=C=S)cc21` [FITC, fluorescein isothiocyanate], the log p is 4.3.
